In patent US6452009B1, “4-unsubstituted dihydroisoquinolinone derivatives and combinatorial libraries thereof” (Lion Bioscience AG, priority 1999, dated 2002) one finds inhibition data, which are given here for 23 molecules.

As a reminder, the inhibition is the change of the read-out against control, counted positive when it falls.

In the first assay the test system is Streptococcus pyogenes (ATCC #97-03 14289). As to the kind of experiment: Anti-microbial screen (growth inhibition, OD 570 nm). Type of assay: cell-based. Particulars: ATCC97, 4 h. As to the method: Streptococcus pyogenes (ATCC #97-03 14289) are grown in Todd Hewitt Broth (THB) (Difco Laboratories #0492-17-6) overnight until they reach an optical density of (OD=0.636@570 nm) by reading 0.1 ml in a 96 well microtiter plate in a Molecular Devices Thermomax. This preparation is kept frozen as stocks in 30% v/v glycerol in 1.5 ml aliquots at −70° C. until use. Prior to screening, 1.5 ml aliquots are thawed and diluted into 50 ml THB. 200 μl of this dilution is added to 92 wells of microtiter plate. To three wells THB (200 μl) is added to serve as a blank and a sterility control. Test compounds in DMSO and appropriate concentrations of DMSO are added to Growth/Solvent Controls at 0 time. Plates are read at 0 time at 570 nm in the Molecular Devices plate reader to obtain compounds correction factors for insoluble or colored compounds. Plates are read again at 4 hrs.
Compounds are assayed at a concentration of 170 μg/ml. Percent inhibition for each compound is calculated using the following formulae:
Color correct=(O.D. 0 hr −Blank 0 hr)—(Solvent Control 0 hr−Blank 0 hr)
% Inhibition=100−(O.D. test compound 4 hr−Blank 4 hr−color correct) divided by (O.D. growth/solvent control 4 hr−Blank 4 hr)
Molecule `C=CCN(CC(N)=O)C(=O)CCN1C(=O)c2cc(NC(=O)CP(=O)(OCC)OCC)ccc2CC1c1cccc(Oc2ccc(Cl)c(Cl)c2)c1` (centres unmarked) had an inhibition at 170 µg/mL of 98.5%. The same measure, in the same setting: the result for `CCOP(=O)(CC(=O)Nc1ccc2c(c1)C(=O)N(CCC(=O)N(CCN(C)C)CC(N)=O)C(c1ccc(C(F)(F)F)cc1)C2)OCC` (centres unmarked) reads 98.9%.

The same assay, now with this note: ATCC97, compounds assayed at 170 μg/ml, growth in Todd Hewitt Broth read at 570 nm at 4 hrs, read-out: % Inhibition.
On to `CN(C)CCN(CC(N)=O)C(=O)c1ccc(CN2C(=O)c3cc(NC(=O)c4ccc(I)cc4)ccc3CC2c2cccnc2)cc1` (centres unmarked), for which the inhibition at 170 µg/mL stood at 98.8%. With `C=CCN(CC(N)=O)C(=O)CCN1C(=O)c2cc(NC(=O)C(=O)c3c(C)cc(C)cc3C)ccc2CC1c1ccc(OCCCN(C)C)cc1` (centres unmarked), the inhibition at 170 µg/mL turned out to be 98.7%. Still for that read-out and setting: the figure for `CC(CC(=O)Nc1ccc2c(c1)C(=O)N(CCC(=O)N(CC(N)=O)C1CC1)C(c1ccc(F)c(F)c1)C2)CC(C)(C)C` (centres unmarked) is 99.7%; for `CN(C)CCCOc1ccc(C2Cc3ccc(NC(=O)COc4ccc5ccccc5c4)cc3C(=O)N2Cc2ccc(C(=O)N(CCN(C)C)CC(N)=O)cc2)cc1` (centres unmarked) it is 98.6%; for `CN(C)CCN(CC(N)=O)C(=O)c1ccc(CN2C(=O)c3cc(NC(=O)c4ccc(OC(F)(F)F)cc4)ccc3CC2c2cccc(C#N)c2)cc1` (centres unmarked) it is 99.5%. Turning to `CN(C)CCCOc1ccc(C2Cc3ccc(NC(=O)CCC4CCCC4)cc3C(=O)N2CCC(=O)N(CCN(C)C)CC(N)=O)cc1` (centres unmarked), the inhibition at 170 µg/mL came out at 98.6%. Still for that read-out and setting: the figure for `CN(C)CCCOc1ccc(C2Cc3ccc(NC(=O)C4(c5ccccc5)CC4)cc3C(=O)N2Cc2ccc(C(=O)N(CC(N)=O)Cc3cccc(C(F)(F)F)c3)cc2)cc1` (centres unmarked) is 98.8%; for `CN(C)CCN(CC(N)=O)C(=O)c1ccc(CN2C(=O)c3cc(NC(=O)CCC4CCCC4)ccc3CC2c2ccc3ccccc3n2)cc1` (centres unmarked) it is 98.6%.

Take `Cc1cc(C)c(C(=O)C(=O)Nc2ccc3c(c2)C(=O)N(Cc2ccc(C(=O)N(CCN(C)C)CC(N)=O)cc2)C(c2ccc4ccccc4n2)C3)c(C)c1` (centres unmarked): the inhibition at 170 µg/mL worked out at 99.2%. As to `COc1cc(OC)cc(C2Cc3ccc(NC(=O)C(=O)c4c(C)cc(C)cc4C)cc3C(=O)N2CCC(=O)N(CCN(C)C)CC(N)=O)c1` (centres unmarked), the inhibition at 170 µg/mL was 99.5%. On the same count and under the same terms, the result for `COc1cccc(CN(CC(N)=O)C(=O)CCN2C(=O)c3cc(NC(=O)CC4CC5CCC4C5)ccc3CC2c2ccc(OCCCN(C)C)cc2)c1` (centres unmarked) reads 98.8%; that for `Cc1ccc(C2Cc3ccc(NC(=O)c4ccc(F)c(F)c4)cc3C(=O)N2Cc2ccc(C(=O)N(CCN(C)C)CC(N)=O)cc2)cc1` (centres unmarked), 98.5%; that for `COc1cc(OC)cc(C2Cc3ccc(NC(=O)Cc4cccc(C(F)(F)F)c4)cc3C(=O)N2Cc2ccc(C(=O)N(CCN(C)C)CC(N)=O)cc2)c1` (centres unmarked), 99.2%.

As for `CN(C)CCCOc1ccc(C2Cc3ccc(NC(=O)CC4CC5CCC4C5)cc3C(=O)N2Cc2ccc(C(=O)N(CC(N)=O)Cc3ccccc3)cc2)cc1` (centres unmarked), the inhibition at 170 µg/mL turned out to be 98.2%.

In the case of `COc1cc(OC)cc(C2Cc3ccc(NC(=O)CCC4CCCC4)cc3C(=O)N2CCC(=O)N(CCN(C)C)CC(N)=O)c1` (centres unmarked), the inhibition at 170 µg/mL worked out at 99.5%. Still for that read-out and setting: the result for `NC(=O)CN(Cc1ccccc1)C(=O)CCN1C(=O)c2cc(NC(=O)CCC3CCCC3)ccc2CC1c1cccc2ccccc12` (centres unmarked) reads 98.4%; that for `CN(C)CCN(CC(N)=O)C(=O)CCN1C(=O)c2cc(NC(=O)c3ccc(C#N)cc3)ccc2CC1c1ccc(C(C)(C)C)cc1` (centres unmarked), 98.5%; that for `CN(C)CCCOc1ccc(C2Cc3ccc(NC(=O)c4ccc(I)cc4)cc3C(=O)N2CCC(=O)N(CCN(C)C)CC(N)=O)cc1` (centres unmarked), 99.8%. Same read-out and setting: the figure for `Cc1cnc(C(=O)Nc2ccc3c(c2)C(=O)N(CCC(=O)N(CCN(C)C)CC(N)=O)C(c2ccc(C(C)(C)C)cc2)C3)cn1` (centres unmarked) is 98.5%. On to `CCCC(CCC)C(=O)Nc1ccc2c(c1)C(=O)N(Cc1ccc(C(=O)N(CC(N)=O)Cc3ccccc3)cc1)C(c1ccc(OCCCN(C)C)cc1)C2` (centres unmarked), for which the inhibition at 170 µg/mL turned out to be 99.5%. On the same count and under the same terms, the result for `CN(C)CCN(CC(N)=O)C(=O)CCN1C(=O)c2cc(NC(=O)C3(c4ccccc4)CC3)ccc2CC1c1cccc2ccccc12` (centres unmarked) reads 99%.
